Reference: patent publication US20050238619A1, “Method for the delivery of sustained release agents” (priority 2004, published 2005)

Experiments:
[1] = Fluorescein retention by RF ablated bovine liver versus number of injections (fluorimeter); format: in vitro ADME; conditions: total volume 0.5 mL, tissue washed over 10 minutes, FIG. 2
Method: Ablated bovine liver, prepared as in Example 1, was injected 3, 10, or 30 times with fluorescein (total volume of 0.5 mL). The tissue was extensively washed over 10 minutes; and the retained fluorescein was calculated as a percentage of the total injected fluorescein. To quantify the retained fluorescein, the washed tissue was homogenized, centrifuged and the supernatant assessed for fluorescein using a fluorimeter with excitation and emission filters of 485 nm and 525 nm, respectively.

[2] = Fluorescein retention in RF ablated bovine liver, washed in PBS and photographed under UV light; format: in vitro ADME; conditions: ablated bovine liver bivalved, agitated in 1 L PBS exchanged daily; photographed under UV light; FIG. 1
From the text: Bovine liver was ablated, injected multiple times with fluorescein. […] The PBS was exchanged daily for two weeks. At weekly intervals, the ablated tissue was photographed under ultraviolet (UV) light. […] This approach can be used to help train and assess people to use the technique.

[3] = Release of fluorescein from RF ablated bovine liver tissue; format: in vitro ADME; conditions: FIG. 3
From the text: To determine the rate of fluorescein release, bovine liver was ablated with RF and injected with fluorescein. […] However, after one week of continued washing, the ablated tissue still contained greater than 50% of the original fluorescein.

[4] = general statement used as the basis of the calculation; cited from earlier work
[5] = Fluorescein retention in RF ablated hepatic tumors in clinical studies, estimated from serial urine samples; format: in vivo, patients; conditions: patient 1, after 12 days; 1 ml of 10% fluorescein (100 mg), 20 injections; estimated 2 L urine/day; FIG. 6
Method: Six patients with unresectable hepatic metastases or hapatocellular carcinoma were enrolled in the Internal Review Board approved protocol following the process of informed consent. Eligibility required that the patient receive RFA for therapeutic intent. RFA was performed using a RadioTherapeutics® device according to their specifications. Subsequently, 1 ml of 10% fluorescein was injected into the ablated tissue (20 different injections).
Because 98% of fluorescein is excreted in the urine, the amount of released and retained fluorescein could be estimated from serial urine sample. Serially, first morning void urine samples were collected and assessed for fluorescein. The retained fluorescein was calculated by subtracting the estimated excreted fluorescein (measured fluorescein (mg/mL)×estimated 2 L urine/day volume) from the total injected fluorescein (100 mg).

[6] = Fluorescein retention in RF ablated subcutaneous Ras-6 tumors in vivo; parameters: species or system Balb/c female mice; conditions: Ras-6 flank tumors, RFA, 50 μl fluorescein in 1 to 3 injections; FIG. 4
Method: Balb/c female mice were injected with 10^6 Ras-6 tumor cells in the flank. The Ras-6 tumor was derived by transfection of a p53-null BALB/c murine embryo fibroblast line with a mutant ras gene. Once the tumors reached 0.5-1 cm in size, the animals were placed under general anesthesia; and the tumors was ablated using a 0.7 cm multi-tined probe. RFA was accomplished by starting with 1-3 watts of power and increasing the power every 30 seconds. A special resistor circuit was placed in the circuit to avoid a low resistance default interrupt error built into the RFA generator. Following RFA, the tumors were injected with a total volume of 50 μl of fluorescein using 1 to 3 injections. At various intervals, the animals were sacrificed and the retained fluorescein assessed. FIG. 4 depicts the residual fluorescein after 1, 3, and 8 days. Consistent with the ex vivo studies, the amount of fluorescein decreases over this time interval; however, substantial fluorescein remains in the ablated tumor for ar least 8 days in vivo.

retained fluorescein as a percentage of the total injected fluorescein ([1]; 3 injections): 41%
retained fluorescein as a percentage of the total injected fluorescein ([1]; 10 injections): 49%
retained fluorescein as a percentage of the total injected fluorescein ([1]; 30 injections): about 65%
time fluorescein was detected within the ablated tissue [2]: at least two weeks
course of released fluorescein ([3]; RF ablated bovine liver, continued washing): exponential decline
fluorescein still contained in the ablated tissue, of the original fluorescein ([3]; after one week of continued washing): greater than 50%
calculated fluorescein retained in the ablated tumor [5]: greater than 90%
time substantial fluorescein remains in the ablated tumor in vivo [6]: ≥ 8 days
SMILES: O=C1OC2(c3ccc(O)cc3Oc3cc(O)ccc32)c2ccccc21 [fluorescein]
fluorescein excreted in the urine [4]: 98%
